Results published in patent US11008317B2, “Triazolopyridine inhibitors of myeloperoxidase and/or EPX” (priority 2016, dated 2021).
Read-outs that look alike come from different tables or passages of the source.

Target: T1, myeloperoxidase (Homo sapiens, UniProt P05164)
T1 sequence (P05164 49-745): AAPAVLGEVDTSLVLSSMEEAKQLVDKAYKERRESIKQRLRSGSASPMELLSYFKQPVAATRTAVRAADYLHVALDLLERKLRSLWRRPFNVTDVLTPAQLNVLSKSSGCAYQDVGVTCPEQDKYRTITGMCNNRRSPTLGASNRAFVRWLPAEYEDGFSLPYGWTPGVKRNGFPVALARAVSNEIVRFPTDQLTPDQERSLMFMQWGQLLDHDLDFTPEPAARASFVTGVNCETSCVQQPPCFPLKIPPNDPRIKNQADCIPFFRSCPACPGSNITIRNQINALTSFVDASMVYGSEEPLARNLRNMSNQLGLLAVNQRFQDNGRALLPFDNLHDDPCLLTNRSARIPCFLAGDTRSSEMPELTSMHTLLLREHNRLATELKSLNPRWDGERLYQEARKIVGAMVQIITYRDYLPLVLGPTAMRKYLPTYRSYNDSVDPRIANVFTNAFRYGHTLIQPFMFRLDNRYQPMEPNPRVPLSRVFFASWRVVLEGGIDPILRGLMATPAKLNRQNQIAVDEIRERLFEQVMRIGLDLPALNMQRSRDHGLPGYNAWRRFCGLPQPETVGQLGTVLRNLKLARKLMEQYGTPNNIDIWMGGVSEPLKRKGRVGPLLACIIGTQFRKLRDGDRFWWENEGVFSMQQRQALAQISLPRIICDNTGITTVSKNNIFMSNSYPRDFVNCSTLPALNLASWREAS
Assay: MPO Peroxidation Assay (Amplex Red Assay)
Type: biochemical
Conditions: potency range class

[1] = read-out: Amplex Red Assay IC50 value

CC(c1ccccc1)c1cc(N)nc2[nH]nnc12 (racemic) [Example 1, 7-(1-phenylethyl)-3H-[1,2,3]triazolo[4,5-b]pyridin-5-amine]
IC50 [1]: 0.001 to 0.1 µM

CC(NCCC(c1ccccc1)c1cc(N)nc2[nH]nnc12)c1ccccc1 (single isomer, unassigned) [Example 13, 7-(1-phenyl-3-((1-phenylethyl)amino)propyl)-3H-[1,2,3]triazolo[4,5-b]pyridin-5-amine]
IC50 [1]: 0.101 to 0.999 µM

Nc1cc(C(CCOC2CCc3ccccc32)c2ccccc2)c2nn[nH]c2n1 (single isomer, unassigned) [Example 232, 7-(3-((2,3-dihydro-1H-inden-1-yl)oxy)-1-phenylpropyl)-3H-[1,2,3]triazolo[4,5-b]pyridin-5-amine]
IC50 [1]: 0.101 to 0.999 µM

CCCC(c1ccccc1)c1cc(N)nc2[nH]nnc12 (centres unmarked) [Example 3, 7-(1-phenylbutyl)-3H-[1,2,3]triazolo [4,5-b]pyridin-5-amine]
IC50 [1]: 0.001 to 0.1 µM

CC(C)CC(c1ccccc1)c1cc(N)nc2[nH]nnc12 (centres unmarked) [Example 4, 7-(3-methyl-1-phenylbutyl)-3H-[1,2,3]triazolo[4,5-b]pyridin-5-amine]
IC50 [1]: 0.101 to 0.999 µM

CCC(c1ccccc1)c1cc(N)nc2[nH]nnc12 (centres unmarked) [Example 5, 7-(1-phenylpropyl)-3H-[1,2,3]triazolo [4,5-b]pyridin-5-amine]
IC50 [1]: 0.101 to 0.999 µM

Nc1cc(C(CCC2CCCCC2)c2ccccc2)c2nn[nH]c2n1 (centres unmarked) [Example 6, 7-(3-cyclohexyl-1-phenylpropyl)-3H-[1,2,3]triazolo[4,5-b]pyridin-5-amine]
IC50 [1]: 0.101 to 0.999 µM

Nc1cc(C(CCNC2CCCCC2)c2ccccc2)c2nn[nH]c2n1 (centres unmarked) [Example 19, 7-[3-(cyclohexylamino)-1-phenylpropyl]-3H-[1,2,3]triazolo[4,5-b] pyridin-5-amine]
IC50 [1]: 0.101 to 0.999 µM

Nc1cc(C(Cc2ccccc2Cl)c2ccccc2)c2nn[nH]c2n1 (centres unmarked) [Example 31, 7-[2-(2-chlorophenyl)-1-phenylethyl]-3H-[1,2,3]triazolo [4,5-b]pyridin-5-amine]
IC50 [1]: 0.101 to 0.999 µM

Nc1cc(C(Cc2cccc(Cl)c2)c2ccccc2)c2nn[nH]c2n1 (centres unmarked) [Example 32, 7-[2-(3-chlorophenyl)-1-phenylethyl]-3H-[1,2,3]triazolo [4,5-b]pyridin-5-amine]
IC50 [1]: 0.101 to 0.999 µM

Nc1cc(C(Cc2ccc(Cl)cc2)c2ccccc2)c2nn[nH]c2n1 (centres unmarked) [Example 33, 7-[2-(4-chlorophenyl)-1-phenylethyl]-3H-[1,2,3]triazolo [4,5-b]pyridin-5-amine]
IC50 [1]: 0.101 to 0.999 µM

COc1cccc(C(Cc2ccccc2)c2cc(N)nc3[nH]nnc23)c1 (centres unmarked) [Example 34, 7-(1-(3-methoxyphenyl)-2-phenylethyl)-3H-[1,2,3]triazolo[4,5-b]pyridin-5-amine]
IC50 (Amplex Red Assay IC50 value (μM)): 0.101 to 0.999 µM

Nc1cc(C(Cc2ccccc2)c2cccc(Cl)c2)c2nn[nH]c2n1 (centres unmarked) [Example 35, 7-[1-(3-chlorophenyl)-2-phenylethyl]-3H-[1,2,3]triazolo [4,5-b]pyridin-5-amine]
IC50 [1]: 0.101 to 0.999 µM

Cc1cccc(C(Cc2ccccc2)c2cc(N)nc3[nH]nnc23)c1 (centres unmarked) [Example 36, 7-[1-(3-methylphenyl)-2-phenylethyl]-3H-[1,2,3]triazolo [4,5-b]pyridin-5-amine]
IC50 [1]: 0.101 to 0.999 µM

Nc1cc(C(CCNC2CCC(c3ccc(Cl)c(Cl)c3)c3ccccc32)c2ccccc2)c2nn[nH]c2n1 (centres unmarked) [Example 122, 7-(3-{[4-(3,4-dichlorophenyl)-1,2,3,4-tetrahydronaphthalen-1-yl]amino}-1-phenylpropyl)-3H-[1,2,3]triazolo[4,5-b]pyridin-5-amine]
IC50 [1]: 0.001 to 0.1 µM

Nc1cc(C(CCO)c2ccccc2)c2nn[nH]c2n1 (centres unmarked) [Example 174, 3-{5-amino-3H-[1,2,3]triazolo [4,5-b]pyridin-7-yl}-3-phenylpropan-1-ol]
IC50 [1]: 0.101 to 0.999 µM

Nc1cc([C@H](CCNC23CCC(c4ccccc4)(CC2)C(O)C3)c2ccccc2)c2nn[nH]c2n1 (stereo partly drawn) [Example 181, 4-{[(3R)-3-{5-amino-3H-[1,2,3]triazolo [4,5-b]pyridin-7-yl}-3-phenylpropyl]amino}-1-phenylbicyclo[2.2.2] octan-2-ol]
IC50 [1]: 0.001 to 0.1 µM
